Laboratory results taken from patent US9789096B2, “Methods and compositions for selective and targeted cancer therapy” (Board of Regents of the University of Texas System, priority 2013, dated 2017).

Experiments:
SCD1 = target: T1, SCD1 (Mus musculus, UniProt P13516); experiment: Tritium release assay of SCD1 activity, mouse preputial gland; assay type: biochemical; settings: preputial gland lacks CYP4F11
T1 construct: tissue derived from mouse liver and preputial gland was independently exposed; from tissue; host or cells: mouse liver
T1 sequence (P13516 whole entry): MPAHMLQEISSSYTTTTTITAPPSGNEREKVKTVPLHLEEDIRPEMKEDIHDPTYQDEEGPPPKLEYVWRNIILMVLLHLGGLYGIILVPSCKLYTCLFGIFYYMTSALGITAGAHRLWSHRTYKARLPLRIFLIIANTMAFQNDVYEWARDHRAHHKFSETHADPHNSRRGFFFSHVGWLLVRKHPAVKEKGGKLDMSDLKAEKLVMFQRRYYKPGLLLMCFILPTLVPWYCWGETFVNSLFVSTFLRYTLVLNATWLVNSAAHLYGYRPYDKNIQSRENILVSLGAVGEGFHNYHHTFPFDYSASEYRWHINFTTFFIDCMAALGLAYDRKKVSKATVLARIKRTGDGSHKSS
Text: FIGS. 10A-10F. Sensitive cells express high levels of CYP4 family members. FIG. 10A. relative expression levels of mRNA for a panel of cytochrome P450 enzymes from the cancer cell line encyclopedia (CCLE, http://www.broadinstitute.org/ccle) showing CYP4F11 in particular is highly expressed in 4 NSCLC lines that are sensitive to SCD1 inhibition. FIG. 10B. Western blot showing that CYP4F11 protein is expressed in all sensitive cell lines but not in the majority of insensitive cell lines. FIG. 10C. […] FIG. 10D. Cells were incubated with either a methoxy-containing oxalamide, which represents the pro-drug form, or the hydroxy containing oxalamide, which represents the active form of the drug. […] FIG. 10E. 293t cells were transfected with mammalian expression plasmids containing SCD1 or CYP4F11 as indicated. Cells were treated with either SW208108 or its demethylated congener, SW211666, and conjugated with a fluorescent dye as described in FIG. 7. Cells containing CYP4F11 form covalent adducts with both the pro-drug (methoxy) and drug form (demethylated, i.e. OH). […] FIG. 10F. Shown are the results of a tritium release assay in which tritiated water is produced from tritiated stearoyl CoA by the action of SCD1. […] By contrast, SW211666 but not SW208108 inhibits SCD1 in mouse preputial gland, which lacks CYP4F11 (bottom). […]

4 sensitive cell lines = experiment: Rescue of toxicity by sodium oleate in 4 sensitive lines; assay type: cell-based, human; settings: 100 μM sodium oleate
Text: FIGS. 8D-8E. Sodium oleate rescues the toxicity of SCD1 inhibitors.
Consistent with this interpretation, the toxicity of SW208108 against 4 sensitive cell lines was fully rescued by adding sodium oleic acid to the culture media (FIG. 8D). Moreover, a commercially available SCD1 inhibitor (Cayman chemicals), originally described by Liu et al (compound 28c in the Journal of Medicinal Chemistry, 2007, 50, 3086-3100) was likewise toxic to the same 4 non-small cell lung cancer cell lines (FIG. 8E).

Compound: C#CCOc1ccc(C(=O)c2ccc(NC(=O)C(=O)NCCc3ccc(OC)cc3)cc2)cc1 [SW208108]
- inhibition of SCD1 activity in mouse preputial gland tissue (SCD1): not in the preputial gland
- toxicity against 4 sensitive cell lines with sodium oleic acid (4 sensitive cell lines): fully rescued
